Assay results from patent US20050238593A1, “Compositions containing dolichol for dermatological and cosmetic use” (priority 2002, published 2005).

Experiments:
[1] = system: isolated hepatocytes treated with carbon tetrachloride; experiment: Peroxidative degradation of dolichol and TBARS formation in hepatocytes treated with CCl4; format: cell-based; conditions: Vitamin E administered
Source text: (§1) After irradiation, dolichol undergoes transformations in the most dangerous spectral region (UVB), depending on the dose of radiation applied; it absorbs UV radiation and, if irradiated with UVC rays, instantly acquires an absorption capacity in the UVB region. […] The phenomenon is very weak in the case of irradiation with monochromatic light at 310 nm, more intense with irradiation at 280 nm, and greatest with white light irradiation, namely with the entire emission spectrum of the xenon lamp. […] The photodecomposition products of dolichol have not yet been identified but, by analogy with the findings made with peroxidative degradation of dolichol in isolated hepatocytes treated with carbon tetrachloride, it can be concluded that in biological systems, the degradation cascade leads to the formation of thiobarbituric acid reactive substances (TBARS), which are readily metabolised and detoxified by the body in the event of resorption. […] As regards absorption, it should be borne in mind that dolichol is a normal constituent of all cell membranes, in which it is synthesised and remains until breakdown, without being resorbed into the bloodstream or being transferable to other tissues.

[2] = Study of anti UV-B activity: UV photo-irradiation of dolichol, absorbance change; format: physicochemical
Source text: as §1

[3] = In vivo photoprotection tests using dolichol; conditions: dolichol approx. 1 mg/cm2, in vivo

| increase in absorbance at 250 nm ([2]; irradiated with UVC rays) | increase in absorbance at 320 nm ([2]; irradiated with UVC rays, in one minute) [%] | increase in absorbance at 320 nm ([2]; irradiated with UVC rays, in two minutes) [%] | acquisition of UVB absorption (the phenomenon) ([2]; irradiation at 280 nm) | acquisition of UVB absorption (the phenomenon) ([2]; irradiation with monochromatic light at 310 nm) | acquisition of UVB absorption (the phenomenon) ([2]; white light irradiation, entire emission spectrum of the xenon lamp) | cell-damaging effects [3] | Substance | degradation of dolichol and formation of TBARS [1] | photostability under UV photo-irradiation ([2]; UV photo-irradiation in an oxygen atmosphere) | (photo)sensitising effects [3] |
| --- | --- | --- | --- | --- | --- | --- | --- | --- | --- | --- |
|  |  |  |  |  |  |  | Vitamin E | prevented |  |  |
| more modest increases | 430 | 580 | more intense | very weak | greatest | does not have cell-damaging effects | dolichol |  | apparent breakdown, accompanied by disappearance of UVC absorption capacity | does not have cell-damaging effects or (photo)sensitising effects |
